Source: the supplement of paper PMC13380429

Columns and labels:
Conditions in all cases: 72 h
Caco-2 [1] = assay: relative viability EC50 (midpoint between 100% and the lowest measured viability); higher = less toxic
U2OS [2] = assay: as above
HepG2 [3] = assay: as above
Vero E6 [4] = assay: as above
Calu-3 [5] = assay: as above
Caco-2 [6] = assay: drug sensitivity score (DSS) for viability; higher = more toxic; extreme values may be limits of the assay
U2OS [7] = assay: as above
HepG2 [8] = assay: as above
Vero E6 [9] = assay: as above
Calu-3 [10] = assay: as above
Caco-2 [11] = assay: cell viability relative to DMSO; higher = less toxic
U2OS [12] = assay: as above
HepG2 [13] = assay: as above
Vero E6 [14] = assay: as above
Calu-3 [15] = assay: as above

Row | SMILES | relative viability EC50 (Caco-2 [1]) | relative viability EC50 (U2OS [2]) | relative viability EC50 (HepG2 [3]) | relative viability EC50 (Vero E6 [4]) | relative viability EC50 (Calu-3 [5]) | drug sensitivity score (Caco-2 [6]) | drug sensitivity score (U2OS [7]) | drug sensitivity score (HepG2 [8]) | drug sensitivity score (Vero E6 [9]) | drug sensitivity score (Calu-3 [10]) | cell viability (Caco-2 [11]; 1 nM) | cell viability (Caco-2 [11]; 10 nM) | cell viability (Caco-2 [11]; 100 nM) | cell viability (Caco-2 [11]; 1000 nM) | cell viability (Caco-2 [11]; 10000 nM) | cell viability (U2OS [12]; 1 nM) | cell viability (U2OS [12]; 10 nM) | cell viability (U2OS [12]; 100 nM) | cell viability (U2OS [12]; 1000 nM) | cell viability (U2OS [12]; 10000 nM) | cell viability (HepG2 [13]; 1 nM) | cell viability (HepG2 [13]; 10 nM) | cell viability (HepG2 [13]; 100 nM) | cell viability (HepG2 [13]; 1000 nM) | cell viability (HepG2 [13]; 10000 nM) | cell viability (Vero E6 [14]; 1 nM) | cell viability (Vero E6 [14]; 10 nM) | cell viability (Vero E6 [14]; 100 nM) | cell viability (Vero E6 [14]; 1000 nM) | cell viability (Vero E6 [14]; 10000 nM) | cell viability (Calu-3 [15]; 1 nM) | cell viability (Calu-3 [15]; 10 nM) | cell viability (Calu-3 [15]; 100 nM) | cell viability (Calu-3 [15]; 1000 nM) | cell viability (Calu-3 [15]; 10000 nM)
1 | CC(C)(C=O)Cc1cc(C(C)(C)C)c(O)c(C(C)(C)C)c1 | > 10 µM | > 10 µM | > 10 µM | > 10 µM | > 10 µM | 0 | 0 | 0 | 0 | 0 | 92.7% | 97.6% | 97.6% | 90.4% | 96.7% | 106% | 103% | 104% | 98.1% | 102% | 97.2% | 96.1% | 108% | 99.9% | 90.9% | 97.1% | 97.8% | 103% | 98.4% | 101% | 102% | 98.8% | 91.2% | 100% | 102%
2 | CCCOc1ccc2[nH]cc(C3=CCNCC3)c2n1 | > 10 µM | > 10 µM | > 10 µM | – | > 10 µM | 0 | 0 | 0 | – | 0 | 95.1% | 95.4% | 95.6% | 94.2% | 100% | 103% | 97.9% | 101% | 101% | 99.5% | 104% | 106% | 99.1% | 97.2% | 96.4% | – | – | – | – | – | 94.1% | 84.5% | 96.1% | 96.2% | 93.2%
3 | CN=c1nc(-c2ccccc2)n(-c2ccccc2)s1 | > 10 µM | > 10 µM | > 10 µM | > 10 µM | > 10 µM | 0 | 0 | 0 | 0 | 0 | 97.2% | 105% | 97% | 97.7% | 89% | 95.5% | 98.1% | 93.4% | 96.9% | 93.8% | 98.4% | 99.8% | 98% | 92.2% | 95.7% | 97.8% | 99.3% | 96.7% | 101% | 87.9% | 110% | 101% | 95.8% | 89.9% | 96%
4 | CO[C@H]1/C=C/O[C@@]2(C)Oc3c(C)c(O)c4c(O)c(c(/C=N/N=C/N5CCCCC5)c(O)c4c3C2=O)NC(=O)/C(C)=C\C=C\[C@H](C)[C@H](O)[C@@H](C)[C@@H](O)[C@@H](C)[C@H](OC(C)=O)[C@@H]1C | > 10 µM | > 10 µM | > 10 µM | > 10 µM | > 10 µM | 0 | 0 | 0 | 0 | 0 | 85.4% | 96.2% | 84.9% | 90.9% | 83.1% | 102% | 106% | 99% | 99.6% | 91.6% | 98.5% | 101% | 93.3% | 113% | 108% | 102% | 100% | 98% | 98.2% | 90.9% | 107% | 102% | 105% | 98.2% | 101%
5 | COc1[nH]c2ccc(F)cc2c1C(=O)OCC1CCN(CCNS(C)(=O)=O)CC1 | > 10 µM | > 10 µM | > 10 µM | > 10 µM | > 10 µM | 0 | 0 | 0 | 0 | 0 | 103% | 99.3% | 96.7% | 98.2% | 98.3% | 104% | 94.5% | 100% | 97.2% | 98.9% | 98.7% | 105% | 97.2% | 101% | 94.6% | 103% | 108% | 102% | 104% | 97.3% | 96% | 94.3% | 92.2% | 105% | 107%
6 | COc1ccc(NS(=O)(=O)c2ccc(I)cc2)cc1N1CCN(C)CC1 | > 10 µM | > 10 µM | > 10 µM | > 10 µM | > 10 µM | 0 | 0 | 0.4 | 0 | 0 | 109% | 98% | 102% | 98.5% | 93.3% | 101% | 97.7% | 102% | 99.8% | 98.2% | 108% | 104% | 100% | 99.9% | 82.6% | 103% | 107% | 102% | 100% | 92.2% | 95.6% | 94.7% | 102% | 93.3% | 101%
7 | COc1ccc(S(=O)(=O)Nc2c(C)cc(C)cc2C)cc1 | > 10 µM | > 10 µM | > 10 µM | > 10 µM | > 10 µM | 0 | 0 | 0 | 0 | 0 | 106% | 94.2% | 93.6% | 94.9% | 94.1% | 103% | 98.7% | 101% | 98.5% | 99.6% | 105% | 98% | 105% | 99.5% | 97.3% | 101% | 105% | 97.2% | 101% | 93.7% | 103% | 96.5% | 94.6% | 106% | 102%
8 | COc1nccc(-c2c(-c3ccc(F)cc3)ncn2C2CCNCC2)n1 | > 10 µM | > 10 µM | > 10 µM | > 10 µM | > 10 µM | 0 | 0 | 0.4 | 1.4 | 0 | 95.8% | 95.7% | 87.6% | 95.2% | 87.8% | 96.3% | 99.5% | 97.1% | 96.9% | 90% | 93.9% | 99.8% | 104% | 88.4% | 94.6% | 100% | 97% | 94.4% | 83.6% | 89% | 87.3% | 93.7% | 90.7% | 95.7% | 83.3%
9 | C[C@H](Cc1ccc2c(c1)OC(C(=O)O)(C(=O)O)O2)NC[C@H](O)c1cccc(Cl)c1 | > 10 µM | > 10 µM | > 10 µM | > 10 µM | > 10 µM | 0 | 0 | 0 | 0 | 0 | 103% | 101% | 104% | 97.3% | 111% | 104% | 101% | 99.1% | 99% | 102% | 97.9% | 101% | 103% | 101% | 97.4% | 97.5% | 97.2% | 93.1% | 96.4% | 97.9% | 103% | 101% | 90.6% | 92.9% | 91.1%
10 | Cc1ccc(N2CCN(CC[C@H]3NC(=O)c4ccccc43)CC2)cc1C | > 10 µM | > 10 µM | > 10 µM | > 10 µM | > 10 µM | 0 | 0 | 0 | 0 | 0 | 97.3% | 90.7% | 92.4% | 97% | 96.4% | 96.7% | 101% | 98.9% | 96.2% | 102% | 90.2% | 96.1% | 96.2% | 95.2% | 97.3% | 90.8% | 97.7% | 93.4% | 98.7% | 111% | 104% | 96.1% | 95.6% | 99.7% | 113%
11 | Cc1ccc(S(=O)(=O)Cc2nc(-c3ccc(C(=O)NCc4cccnc4)cc3)oc2C)cc1 | 0.0408 µM | 0.0364 µM | 0.0249 µM | 0.0372 µM | 0.036 µM | 27.6 | 29.7 | 28.2 | 29.2 | 28.3 | 104% | 107% | 11.2% | 5.4% | 16.6% | 96.4% | 108% | 1.1% | -0.1% | -0.2% | 101% | 77.3% | 23.5% | 12.2% | 9.5% | 106% | 110% | 2.3% | 1.5% | 2.6% | 105% | 102% | 8.7% | 5.3% | 5.3%
12 | Cn1cc(-c2ccc(F)c(C(F)(F)F)c2)nc1C1CCN(c2ncnc3[nH]ncc23)CC1 | > 10 µM | > 10 µM | > 10 µM | > 10 µM | > 10 µM | 0.2 | 0.7 | 0 | 0 | 0.4 | 97% | 96.9% | 102% | 102% | 84.5% | 96.9% | 94.5% | 90.3% | 90.9% | 84.6% | 106% | 97.8% | 106% | 91.7% | 94.7% | 98.4% | 106% | 96.7% | 95.4% | 92% | 95.6% | 90.2% | 96.4% | 94.1% | 82.1%
13 | O=C(Nc1cc(C(F)(F)F)cc(C(F)(F)F)c1)c1cnc(Cl)nc1C(F)(F)F | > 10 µM | > 10 µM | > 10 µM | > 10 µM | > 10 µM | 0 | 0 | 0 | 0 | 0 | 102% | 94.3% | 102% | 103% | 97.7% | 100% | 100% | 102% | 99.9% | 94.9% | 90.4% | 96.7% | 99.8% | 97% | 92.6% | 96% | 97.5% | 97.1% | 97.2% | 102% | 98.3% | 109% | 101% | 104% | 99.2%
14 | O=C1C(Cl)=C(NCCN2CCOCC2)C(=O)c2ncccc21 | 1.46 µM | 2.8 µM | 2.04 µM | – | 3.61 µM | 9.4 | 6.2 | 7.8 | 1.7 | 4.7 | 94% | 90.9% | 89.5% | 68.4% | 1.1% | 98.1% | 94.1% | 99.5% | 95.3% | 0% | 94% | 90.7% | 87.6% | 86.1% | 1.6% | 102% | 100% | 100% | 99.3% | 65.4% | 110% | 104% | 100% | 109% | 5.1%
15 | OCCn1cc(-c2cnc3nnn(Cc4ccc5ncccc5c4)c3n2)cn1 | > 10 µM | > 10 µM | – | > 10 µM | > 10 µM | 1.8 | 0 | 1.3 | 0 | 0 | 93.7% | 100% | 97.1% | 86.2% | 79.2% | 105% | 101% | 99.3% | 95.3% | 97.1% | 102% | 93.6% | 88.8% | 97.7% | 74.9% | 99.7% | 105% | 97.7% | 97.7% | 96.4% | 99% | 92.2% | 93% | 93.9% | 103%
